What was measured:
Assay type in all cases: in vivo
Lolium rigidum (LOLRI) [1] = test: Herbicidal post-emergence action, 1280 g/ha (Table B5); conditions: visual assessment after ca. 3 weeks vs untreated controls
Method in brief: (§1)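 Weeds grown in sandy loam under controlled conditions were sprayed post-emergence at the single-leaf stage, 2 to 3 weeks after sowing, with WP or EC formulations plus 0.5% additive at 600 L water/ha. Visual % damage versus untreated controls was scored after ca. 3 weeks in the greenhouse.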

[2] = test system: Matricaria inodora (MATIN); test: Herbicidal post-emergence action, 1280 g/ha (Table B6); conditions: visual assessment after ca. 3 weeks vs untreated controls
Method in brief: as §1

[3] = test system: Echinochloa crus-galli (ECHCG); test: Herbicidal post-emergence action, 1280 g/ha (Table B3); conditions: visual assessment after ca. 3 weeks vs untreated controls
Source text: (§2) Seeds of mono- and dicotyledonous weed plants were sown in plastic pots (double sowings with one species of mono- and one species of dicotyledonous weed plants per pot), in sandy loam, covered with soil and grown under controlled growth conditions. 2 to 3 weeks after sowing, the test plants were sprayed in the single-leaf stage. The compounds according to the invention, formulated in the form of wettable powders (WP) or as emulsifiable concentrates (EC), were sprayed onto the green plant parts as an aqueous suspension or as an emulsion, with the addition of 0.5% of an additive, at an application rate of 600 litres of water per hectare (converted). The test plants were placed in the greenhouse for ca. 3 weeks under optimum growth conditions, and then the effect of the preparations was assessed visually in comparison with untreated controls (herbicidal effect in percent (%): 100% effect=plants have died, 0% effect=as control plants). Tables B1 to B11 below, show the effects of selected compounds of the general formula (I) according to Table 1 on various harmful plants using an application rate corresponding to 1280 g/ha obtained by the experimental procedure mentioned above.

[4] = test system: Abutilon theophrasti (ABUTH); test: Herbicidal post-emergence action, 1280 g/ha (Table B1); conditions: visual assessment after ca. 3 weeks vs untreated controls
Method in brief: as §1

Lolium rigidum (LOLRI) [5] = test: Herbicidal pre-emergence action, 320 g/ha (Table C2); conditions: visual grading after ca. 3 weeks vs untreated controls
Method in brief: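 Applied pre-emergence to the surface of soil covering weed seeds sown in sandy loam, as WP or EC formulations in water with 0.5% additive at 600 L/ha. Greenhouse-grown; damage graded visually at ca. 3 weeks as percent of untreated controls (100% = plants died).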

Stellaria media (STEME) [6] = test: Herbicidal post-emergence action, 1280 g/ha (Table B9); conditions: visual assessment after ca. 3 weeks vs untreated controls
Method in brief: as §1

Stellaria media (STEME) [7] = test: Herbicidal post-emergence action, 320 g/ha, STEME; conditions: visual grading after ca. 3 weeks
Method in brief: (§3)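 Weeds grown in sandy loam were sprayed post-emergence at the single-leaf stage, 2–3 weeks after sowing. Compounds were formulated as WP or EC with 0.5% additive and applied at 320 g/ha in 600 L water/ha. After ~3 weeks in the greenhouse, damage was scored visually as % versus untreated controls (100% = dead).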

[8] = test system: Amaranthus retroflexus (AMARE); test: Herbicidal post-emergence action, 1280 g/ha, AMARE; conditions: visual grading vs untreated controls
Method in brief: (§4)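 Pot-grown weeds in sandy loam sprayed post-emergence at the single-leaf stage, 2–3 weeks after sowing, with WP or EC formulations plus 0.5% additive in 600 L water/ha at 1280 g/ha. After ca. 3 weeks in the greenhouse, damage scored visually as % effect versus untreated controls (100% = plants dead).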

[9] = test system: Amaranthus retroflexus (AMARE); test: Herbicidal pre-emergence action, 1280 g/ha (Table A11); conditions: visual grading after ca. 3 weeks vs untreated controls
Method in brief: (§5)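 Compounds were formulated as WP or EC and sprayed onto the covering soil of freshly sown pots (sandy loam) in 600 L water/ha with 0.5% additive. Pots were kept in a greenhouse, and damage was scored visually after ca. 3 weeks as % effect versus untreated controls (100% = dead).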

Stellaria media (STEME) [10] = test: Herbicidal pre-emergence action, 1280 g/ha (Table A9); conditions: visual grading after ca. 3 weeks vs untreated controls
Method in brief: as §5

Lolium rigidum (LOLRI) [11] = test: Herbicidal pre-emergence action, 1280 g/ha (Table A5); conditions: visual grading after ca. 3 weeks vs untreated controls
Method in brief: as §5

Poa annua (POAAN) = test: Herbicidal pre-emergence action, 1280 g/ha (Table A7); conditions: visual grading after ca. 3 weeks vs untreated controls
Source text: (§6) Seeds of mono- and dicotyledonous weed plants were sown in plastic pots (double sowings with one species of mono- and one species of dicotyledonous weed plants per pot), in sandy loam, and covered with soil. The compounds according to the invention, formulated in the form of wettable powders (WP) or as emulsifiable concentrates (EC), were applied to the surface of the covering soil as an aqueous suspension or as an emulsion, with the addition of 0.5% of an additive, at an application rate of 600 litres of water per hectare (converted). Following treatment, the pots were placed in a greenhouse and kept under optimum growth conditions for the test plants. The visual grading of the damage to the test plants was carried out after ca. 3 weeks in comparison to untreated controls (herbicidal effect in percent (%): 100% effect=plants have died, 0% effect=as control plants). Tables A1 to A11 below, show the effects of selected compounds of the general formula (I) according to Table 1 on various harmful plants and an application rate corresponding to 1280 g/ha obtained by the experimental procedure mentioned above.

[12] = test system: Amaranthus retroflexus (AMARE); test: Herbicidal post-emergence action, 320 g/ha, AMARE; conditions: visual grading after ca. 3 weeks
Method in brief: as §3

Kochia scoparia (KCHSC) [13] = test: Herbicidal pre-emergence action, 1280 g/ha (Table A4); conditions: visual grading after ca. 3 weeks vs untreated controls
Method in brief: as §5

[14] = test system: Matricaria inodora (MATIN); test: Herbicidal pre-emergence action, 1280 g/ha (Table A6); conditions: visual grading after ca. 3 weeks vs untreated controls
Method in brief: as §5

Stellaria media (STEME) [15] = test: Herbicidal pre-emergence action, 320 g/ha, STEME; conditions: visual grading after ca. 3 weeks
Method in brief: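 Weed seeds sown in sandy loam pots; WP or EC formulations applied pre-emergence to the covering soil surface at 320 g/ha with 0.5% additive in 600 L water/ha. Greenhouse growth; visual damage scored after ca. 3 weeks versus untreated controls (100% = plants died, 0% = as control).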

[16] = test system: Abutilon theophrasti (ABUTH); test: Herbicidal post-emergence action, 320 g/ha, ABUTH; conditions: visual grading after ca. 3 weeks
Method in brief: as §3

Veronica persica (VERPE) [17] = test: Herbicidal post-emergence action, 1280 g/ha, VERPE; conditions: visual grading vs untreated controls
Method in brief: as §4

Kochia scoparia (KCHSC) [18] = test: Herbicidal post-emergence action, 1280 g/ha (Table B4); conditions: visual assessment after ca. 3 weeks vs untreated controls
Method in brief: as §1

Setaria viridis (SETVI) [19] = test: Herbicidal post-emergence action, 1280 g/ha (Table B8); conditions: visual assessment after ca. 3 weeks vs untreated controls
Source text: as §2

Kochia scoparia (KCHSC) [20] = test: Herbicidal post-emergence action, 320 g/ha, KCHSC; conditions: visual grading after ca. 3 weeks
Method in brief: as §3

Setaria viridis (SETVI) [21] = test: Herbicidal pre-emergence action, 1280 g/ha (Table A8); conditions: visual grading after ca. 3 weeks vs untreated controls
Source text: as §6

[22] = test system: Abutilon theophrasti (ABUTH); test: Herbicidal pre-emergence action, 1280 g/ha (Table A1); conditions: visual grading after ca. 3 weeks vs untreated controls
Method in brief: as §5

[23] = test system: Matricaria inodora (MATIN); test: Herbicidal post-emergence action, 320 g/ha, MATIN; conditions: visual grading after ca. 3 weeks
Method in brief: as §3

Veronica persica (VERPE) [24] = test: Herbicidal post-emergence action, 320 g/ha, VERPE; conditions: visual grading after ca. 3 weeks
Source text: as §2, with “plants).” for “plants). Tables B1 to B11 below, show the effects of selected compounds of the general formula (I) according to Table 1 on various harmful plants using an application rate corresponding to 1280 g/ha obtained by the experimental procedure mentioned above.”
(§7) Tables D1 to D8 below, show the effects of selected compounds of the general formula (I) according to Table 1 on various harmful plants using an application rate corresponding to 320 g/ha obtained by the experimental procedure mentioned above.

Lolium rigidum (LOLRI) [25] = test: Herbicidal post-emergence action, 320 g/ha, LOLRI; conditions: visual grading after ca. 3 weeks
Source text: as §2, with “plants).” for “plants). Tables B1 to B11 below, show the effects of selected compounds of the general formula (I) according to Table 1 on various harmful plants using an application rate corresponding to 1280 g/ha obtained by the experimental procedure mentioned above.”
as §7

SMILES | herbicidal effect LOLRI (Lolium rigidum (LOLRI) [1]) [%] | herbicidal effect MATIN [2] [%] | herbicidal effect ECHCG [3] [%] | herbicidal effect ABUTH [4] [%] | herbicidal effect LOLRI (Lolium rigidum (LOLRI) [5]) [%] | herbicidal effect STEME (Stellaria media (STEME) [6]) [%] | herbicidal effect STEME (Stellaria media (STEME) [7]) [%] | herbicidal effect AMARE [8] [%] | herbicidal effect AMARE [9] [%] | herbicidal effect STEME (Stellaria media (STEME) [10]) [%] | herbicidal effect LOLRI (Lolium rigidum (LOLRI) [11]) [%] | herbicidal effect AMARE [12] [%] | herbicidal effect KCHSC (Kochia scoparia (KCHSC) [13]) [%] | herbicidal effect MATIN [14] [%] | herbicidal effect STEME (Stellaria media (STEME) [15]) [%] | herbicidal effect ABUTH [16] [%] | herbicidal effect VERPE (Veronica persica (VERPE) [17]) [%] | herbicidal effect KCHSC (Kochia scoparia (KCHSC) [18]) [%] | herbicidal effect SETVI (Setaria viridis (SETVI) [19]) [%] | herbicidal effect KCHSC (Kochia scoparia (KCHSC) [20]) [%] | other results
Cc1nn(C)c(=O)c(Oc2ccccc2C(C)C)c1O [Example I-022] | 90 | 90 | 90 | 100 | 100 | 100 | 90 | 90 | 90 | 100 | 100 | 90 | 90 | 90 | 100 | 90 | – | – | – | – | herbicidal effect POAAN (Poa annua (POAAN)): 90%
CCOC(=O)Oc1c(C)nn(C)c(=O)c1Oc1ccc(Cl)cc1C1CC1 [Example I-036] | 90 | 90 | – | 90 | – | 90 | – | 100 | – | 100 | 90 | 90 | – | 100 | – | 90 | 90 | 90 | 90 | 90 | –
CCOC(=O)Oc1c(C)nn(C)c(=O)c1Oc1cc(F)ccc1C1CC1 [Example I-045] | 100 | 100 | – | 100 | 90 | 100 | 90 | 100 | 100 | 100 | 100 | 90 | – | 90 | 90 | 100 | 100 | 90 | 90 | 90 | herbicidal effect SETVI (Setaria viridis (SETVI) [21]): 90%; herbicidal effect ABUTH [22]: 90%; herbicidal effect MATIN [23]: 90%; herbicidal effect VERPE (Veronica persica (VERPE) [24]): 100%; herbicidal effect LOLRI (Lolium rigidum (LOLRI) [25]): 100%
CCOC(=O)Oc1c(C)nn(C)c(=O)c1Oc1cc(F)c(F)cc1Br [Example I-093] | – | 90 | – | 90 | – | 90 | – | 100 | 90 | – | – | – | 90 | 90 | – | – | 90 | – | 90 | – | herbicidal effect MATIN [23]: 90%
CC(=O)Oc1c(C)nn(C)c(=O)c1Oc1ccccc1OC(F)(F)F [Example I-029] | 90 | 90 | 90 | 100 | 90 | 100 | 90 | 90 | 100 | 100 | 100 | 90 | 90 | 100 | – | 90 | 90 | 90 | – | – | herbicidal effect ABUTH [22]: 90%
CCOC(=O)Oc1c(C)nn(C)c(=O)c1Oc1cc(F)ccc1Br [Example I-088] | 90 | 90 | – | – | 90 | 90 | – | 100 | 100 | 90 | 100 | 90 | – | 100 | – | – | – | – | 90 | – | –

Source: patent publication US20240239755A1, “SUBSTITUTED PYRIDAZINONES, SALTS OR N-OXIDES THEREOF AND THEIR USE AS HERBICIDALLY ACTIVE SUBSTANCES” (Bayer Aktiengesellschaft, priority 2021, published 2024)
